# Measurements reported in article PMC3409661 (Radiation research, 2012).
# Read-outs that look alike come from different tables or passages of the source.
# What was measured:
# [1] = test system: S. typhimurium strain TA100; type: cell-based, Salmonella typhimurium
# [2] = test system: S. typhimurium strain TA98; type: cell-based, Salmonella typhimurium
# [3] = test system: diploid human fibroblasts; assay: Flow cytometry cell-cycle analysis; type: cell-based
# [4] = test system: diploid human fibroblasts; assay: Human cell growth inhibition; type: cell-based; conditions: PrC-210 in medium for 30 h before cell counting
# p21 = assay: Western blot for p21 expression in nuclear extracts; type: cell-based, human; conditions: 4.1 mM PrC-210 for 30 h vs untreated cells
# [5] = test system: supercoiled pUC19 plasmid DNA; assay: Protection of plasmid DNA against ROS-induced nicking; type: biochemical; conditions: PrC-210 0–70 mM added before hydroxyl radical generating system
# [6] = Distribution of [14C] PrC-210 topically applied to rat skin; conditions: for Recovery (carcass) / Recovery (skin) = skin (dose site) + skin wash / Recovery (total): 48 h
# ICR mice [7] = assay: Mouse radiation survival assay; type: in vivo
# rat = rat model, 0.5× mouse MTD; cited from earlier work
# [8] = pH and disulfide formation of aqueous PrC-210 solutions; type: physicochemical; conditions: for PrC-210 disulfide in solution: aqueous
# [9] = test system: Sprague-Dawley rat dorsal skin; assay: Rat dorsal skin radiodermatitis assay; type: in vivo
# ICR mice [10] = assay: Mouse aminothiol toxicity assay; type: in vivo
# [11] = cited from earlier work
# CHO K1 cells = conditions: reported in one setting; cited from earlier work
# humans = conditions: cited from earlier work
# ferret = ferret model, 0.5× mouse MTD; cited from earlier work
# ICR mice [12] = conditions: known radioprotectors, value quoted for comparison, no reference given; cited from earlier work
# [13] = 87 μM (so in the source), positive control
# [14] = Group 2: 1850 mM dermal, without norepinephrine
# [15] = Group 3: 1850 mM dermal, with 300 mM norepinephrine
smiles,measurement,setting,value
"Nc1cccc2cc3ccccc3cc12 [Aminoanthracene, reference compound]",Colonies/plate (mean ± SD) Strain TA100 +S9,[1]; [13],570 ± 90 Colonies/plate
same,Colonies/plate (mean ± SD) Strain TA98 +S9,[2]; [13],177 Colonies/plate
same,Colonies/plate (mean ± SD) Strain TA98 −S9,[2]; [13],>1800 Colonies/plate
CNCC(CS)CNC [PrC-210],S-phase fraction of cells after washout,"[3]; 4.1 mM PrC-210 30 h, then washout and fresh medium 48 h",40%
same,S-phase fraction of cells,"[3]; 4.1 mM PrC-210 for 30 h, control 53%",8%
same,type of cell cycle block,[3]; PrC-210-treated normal human fibroblasts,G1/S cell cycle block
same,Colonies/plate (mean ± SD) Strain TA100 +S9,[1]; 30 μM,119 Colonies/plate
same,Colonies/plate (mean ± SD) Strain TA100 −S9,[1]; 30 μM,121 ± 8 Colonies/plate
same,Colonies/plate (mean ± SD) Strain TA100 +S9,[1]; 100 μM,127 ± 8 Colonies/plate
same,Colonies/plate (mean ± SD) Strain TA100 −S9,[1]; 100 μM,116 ± 22 Colonies/plate
same,Colonies/plate (mean ± SD) Strain TA100 +S9,[1]; 400 μM,144 ± 14 Colonies/plate
same,Colonies/plate (mean ± SD) Strain TA100 −S9,[1]; 400 μM,128 Colonies/plate
same,Colonies/plate (mean ± SD) Strain TA100 +S9,[1]; 1000 μM,148 ± 5 Colonies/plate
same,Colonies/plate (mean ± SD) Strain TA100 −S9,[1]; 1000 μM,101 ± 19 Colonies/plate
same,Colonies/plate (mean ± SD) Strain TA100 +S9,[1]; 4100 μM,115 ± 33 Colonies/plate
same,Colonies/plate (mean ± SD) Strain TA100 −S9,[1]; 4100 μM,134 ± 20 Colonies/plate
same,Colonies/plate (mean ± SD) Strain TA100 +S9,[1]; 7000 μM,149 ± 18 Colonies/plate
same,Colonies/plate (mean ± SD) Strain TA100 −S9,[1]; 7000 μM,128 ± 11 Colonies/plate
same,mutagenicity: point mutations (strain TA100),[1]; concentrations up to 7 mM,nor point mutations
same,"IC70 dose, inhibition of cell growth",[4],4.1 mM
same,p21 protein level in nuclear extracts,p21,significantly elevated
same,protection of supercoiled plasmid DNA against ROS-induced nicking,[5],complete protection
same,systemic dose after topical application,"[6]; 300 g rats, 1.1 mg absorbed, over 48 h (lowest)",3.7 μg/g BW
same,estimated mass that crossed the skin barrier and entered systemic circulation,"[6]; Group 1, over 48 h (16.28 mg × 6.7%)",1.1 mg
same,Cmax (radioactivity in plasma),"[6]; Group 1: 370 mM dermal, 16.28 mg applied",257 ng-eq/g
same,Recovery (carcass),[6]; Group 1: 370 mM dermal,0.52%
same,Recovery (skin) = skin (dose site) + skin wash,[6]; Group 1: 370 mM dermal,41.54%
same,Recovery (total),[6]; Group 1: 370 mM dermal,49.4%
same,Recovery (carcass),[6]; [14],1.84%
same,Recovery (skin) = skin (dose site) + skin wash,[6]; [14],47.16%
same,Recovery (total),[6]; [14],66.0%
same,estimated mass that crossed the skin barrier and entered systemic circulation,"[6]; Group 3, over 48 h",6.8 mg
same,Cmax (radioactivity in plasma),"[6]; Group 3: 1850 mM dermal, 81.40 mg applied, with 300 mM norepinephrine",726 ng-eq/g
same,Recovery (carcass),[6]; [15],1.53%
same,Recovery (skin) = skin (dose site) + skin wash,[6]; [15],60.46%
same,Recovery (total),[6]; [15],70.0%
same,share of absorbed radioactivity eliminated by the urine,[6]; after dermal dose,≥ 90%
same,transfer of topically applied PrC-210 into systemic circulation,"[6]; over 48 h following topical administration, across groups",6–15%
same,14C cpm in blood remaining soluble after TCA precipitation,"[6]; rat blood samples, preliminary analysis (not shown)",less than 10%
same,dose reduction factor (DRF),"ICR mice [7]; i.p. 211 μg/g BW 30 min before increasing radiation doses, survival to day 35",1.6
same,survival,ICR mice [7]; i.p. 211 μg/g BW (0.5× MTD best fit) 30 min before 8.63 Gy whole-body radiation,98%
same,survival,ICR mice [7]; i.p. 252 μg/g BW 30 min before 8.75 Gy (otherwise 100% lethal),100%
same,survival,ICR mice [7]; i.p. 252 μg/g BW (0.5× MTD probit) 30 min before 8.63 Gy whole-body radiation,100%
same,Colonies/plate (mean ± SD) Strain TA98 −S9,[2]; 30 μM,43 ± 2 Colonies/plate
same,Colonies/plate (mean ± SD) Strain TA98 +S9,[2]; 100 μM,64 ± 4 Colonies/plate
same,Colonies/plate (mean ± SD) Strain TA98 −S9,[2]; 100 μM,51 ± 6 Colonies/plate
same,Colonies/plate (mean ± SD) Strain TA98 +S9,[2]; 400 μM,55 ± 3 Colonies/plate
same,Colonies/plate (mean ± SD) Strain TA98 −S9,[2]; 400 μM,58 ± 14 Colonies/plate
same,Colonies/plate (mean ± SD) Strain TA98 +S9,[2]; 1000 μM,54 ± 6 Colonies/plate
same,Colonies/plate (mean ± SD) Strain TA98 −S9,[2]; 1000 μM,53 ± 3 Colonies/plate
same,Colonies/plate (mean ± SD) Strain TA98 +S9,[2]; 4100 μM,55 Colonies/plate
same,Colonies/plate (mean ± SD) Strain TA98 −S9,[2]; 4100 μM,55 ± 5 Colonies/plate
same,Colonies/plate (mean ± SD) Strain TA98 +S9,[2]; 7000 μM,65 ± 9 Colonies/plate
same,Colonies/plate (mean ± SD) Strain TA98 −S9,[2]; 7000 μM,51 ± 5 Colonies/plate
same,mutagenicity: frameshift mutations (strain TA98),[2]; concentrations up to 7 mM,neither frameshift mutations
same,hypotension response,rat,nor hypotension response
same,pH on dissolution in water,[8]; HCl salt dissolved in water,~ 3.0
same,PrC-210 disulfide in solution,"[8]; pH 5.5, 1 week at room temperature in the dark",< 1%
same,PrC-210 disulfide in solution,"[8]; pH 8.0, 1 week at room temperature in the dark",> 98%
same,protection against radiation dermatitis,[9]; 1 to 2 topical applications only,much less protection
same,prevention of radiation dermatitis,[9]; four topical applications over 2 h before irradiation (Fig. 5F),98%
same,"prevention of radiation dermatitis, systemic administration",[9]; i.p. 200 μg/g BW 30 min before 17.3 Gy,complete prevention
same,"radiodermatitis prevention, structure-activity study","[9]; topical 370 mM, thiol plus charged alkyl-amine backbone (Fig. 6)",100%
same,"protection against radiation dermatitis, aqueous vehicle",[9]; topical 1500 mM in vehicles containing 75% water,still conferred protection
same,prevention of Grade 2–3 radiation dermatitis by increasing topical doses,[9]; topical application to rat skin before irradiation vs vehicle controls,completely prevented
same,"prevention of Grade 3 radiation dermatitis, topical","[9]; topical, at or above 370 mM, 17.3 Gy, scored 13 days after irradiation",completely prevented
same,IC100 dose for radiation dermatitis,"[9]; topical, vehicle 0:95:5 (ethanol:propylene glycol:water)",1500 mM
same,IC100 dose for radiation dermatitis,"[9]; topical, vehicle 50:30:20 (ethanol:propylene glycol:water)",370 mM
same,i.p. MTD (= i.p. LD10 dose),ICR mice [10]; extrapolated from the best fit curve (Fig. 8A),422 μg/g BW
same,LD10 dose,"ICR mice [10]; i.p., probit analysis of percentage survival data",504 μg/g BW
same,toxic response,ICR mice [10]; single i.p. 500 μg/g BW,"either a transient response in which the mice are sleepy but then rebound over several hours and survive, or they die within 1–2 h"
same,lethality,"ICR mice [10]; single i.p. 700 μg/g BW, severe muscle spasm then death within min",100%
same,oral activity,[11],active when taken orally
"NCCCNCCS [WR-1065, 2-[(aminopropyl)amino]ethanethiol]",type of cell cycle block,CHO K1 cells,G2/M cell cycle block
NCCCNCCSP(=O)(O)O [amifostine],systemic toxicities,humans; human amifostine use,"significant systemic toxicities (nausea/emesis, hypotension/fainting)"
same,efficacy when applied topically to skin or mucosa,humans; humans,has not been effective
same,retch/vomit response,ferret,elicits both responses
same,dose reduction factor (DRF),ICR mice [12],1.6
same,hypotension response,rat,elicits both responses
